Patent US20180092920A1, “METHOD FOR TREATING TAU PROTEIN-MEDIATED DEGENERATIVE NEURONAL DISEASE” (SEOUL NATIONAL UNIVERSITY R&DB FOUNDATION, priority 2012, published 2018)

What was measured:
[1] = tested on: ALK-mediated tau phosphorylation; conditions: for ALK-mediated tau phosphorylation: HT22 cells, pGFP-tau + pALK.Fc, 24 hours, dependent on treating amount
Method: In addition, examined was influence of a tau kinase specific inhibitor on ALK-induced tau phosphorylation. […] Thereafter, western bolt was performed using the cell extract. The used antibodies are as follow: PHF-1 (p-Ser396/404; Davies), CP13 (p-S202; Davies), MC-1 (conformational change; Davies), P35/25 (Cell signaling, #2680), TG5 (220-240; generously provided by Dr. Peter Davies, Albert Einstein College of Medicine, NY), -actin (Sigma, A2668), ERK (Cell signaling, #9102), p-ERK (Cell signaling, #9101), GSK3β (BD Biosciences, 610201), and p-GSK3β (p-Ser9; Cell signaling, #9323).

HT22/Tau #1 cells = experiment: Cell death of HT22/Tau #1 cells transfected with ALK.Fc and treated with ALK inhibitor (fluorescence microscopy, cell morphology); type: cell-based, mouse; conditions: 20 nM, 24 hours; decreased from 42% without inhibitor
Method: Then, cell death was determined through a fluorescence microscopy based on cell morphology. Thereafter, cells were extracted and phosphorylation of tau, ERK, CDK5 and ALK was measured through western blot using respective antibodies. The error bar of the graph indicates mean±S.D. (n=4).

TauC3 AD model mice = experiment: Memory tests (Y-MAZE, novel object recognition, passive avoidance) in TauC3 AD model mice; type: in vivo, mouse; conditions: TauC3 mice one-month-old, icv injection 9 pg, after 17 days
Method: TauC3 mice, which were produced by the present inventor, are a tau Alzheimer's mouse model showing early memory defect by expressing tauC3 in a mouse brain, wherein the tauC3 has C-terminal of which 20 amino acids were eliminated by caspase-3 (see Korean Patent No. 1213325). […] After 17 days, memory was measured and compared by Y-MAZE (FIGS. 14A and 14B), novel object recognition (FIG. 14C) and passive avoidance test (FIG. 14D). Consequently, as shown in FIGS. 14A to 14D, memory of mock (a control) in TauC3 TG mice was remarkably declined while memory decline of the ALK inhibitor treating group was suppressed in all three types of behavior tests.

[2] = tested on: tau phosphorylation and signaling proteins in brain; experiment: Western blot of brain tissue (hippocampus) of TauC3 mice after the behavior tests; type: in vivo, mouse
HT22 cells = conditions: 25 iM roscovitine, 1 μM U0126, 24 hours
Method: Examined was a cell death level of neuronal cells containing a lot of aggregated and hyperphosphorylated tau due to ALK. HT22 cells were cotransfected with pALK.Fc or pALK.Fc KD construct and pGFP or pGFP-tau construct, and cultured for 24 to 96 hours. Cell death was measured by staining cells with ethidium homodimer (EtHD) and then counting GFP-positive cells indicating condensed and fragmented nuclei.
To examine downstream kinase of ALK-mediated tau neurotoxicity, the present inventor used a kinase inhibitor. HT22 cells were cotransfected with pALK.Fc and pGFP-tau constructs, and then treated with mock (Mock), 25 iM roscovitine (Ros), 1 μM U0126 (U0126), or 10 mM LiCl for 24 hours. Thereafter, cell death was measured. For negative control, used was mock group in which none of a material was treated.

[3] = tested on: tau aggregation caused by ALK in HT22 cells; experiment: Tau aggregation in HT22 cells cotransfected with pmALK and pGFP-tau, counted by fluorescence microscopy; type: cell-based, mouse; conditions: pmALK + pGFP-tau, emodin treatment
Method: To examine whether mouse ALK increases aggregation and phosphorylation of tau, a pGFP-tau-based functional screening method of which availability was validated in the Experiment Example 1 was used. […] The transfection was performed while amounts of cotransfected pcDNA, pGSK3β CA, and pmALK constructs were increased to 100, 200, and 400 ng. After 24 hours of transfection, aggregation of tau was examined as the number of GFP-positive cells appeared to be aggregated by using a fluorescence microscopy. After then, the cells were extracted to examine phosphorylation of tau by analyzing PHF-1 protein expression with western blot. Subsequently, the present inventor examined aggregation and phosphorylation of tau caused by coexpression of mouse tau and mouse ALK as observed in Experimental Example 1-1 through treatment of an inhibitor of ERK activation and PHF aggregation. Specifically, HT22 cells were cotransfected with pmALK and pGFP-tau constructs, and condensation of cells depending whether emodin was treated or not was counted, wherein emodin is an inhibitor of ERK activation and PHF aggregation. Then, the cells were extracted to examine a phosphorylation level of tau protein by using PHF-1 antibody and Tau-1 antibody.

[4] = tested on: tau protein phosphorylation; experiment: Western blot of tau phosphorylation (PHF-1, Tau-1 antibodies) in HT22 cells cotransfected with pmALK and pGFP-tau; type: cell-based, mouse; conditions: pmALK + pGFP-tau, emodin treatment
Method: Subsequently, the present inventor examined aggregation and phosphorylation of tau caused by coexpression of mouse tau and mouse ALK as observed in Experimental Example 1-1 through treatment of an inhibitor of ERK activation and PHF aggregation. Specifically, HT22 cells were cotransfected with pmALK and pGFP-tau constructs, and condensation of cells depending whether emodin was treated or not was counted, wherein emodin is an inhibitor of ERK activation and PHF aggregation. Then, the cells were extracted to examine a phosphorylation level of tau protein by using PHF-1 antibody and Tau-1 antibody.

[5] = tested on: tau aggregation caused by ALK in HT22 cells; conditions: emodin, inhibitor of PHF aggregation; given with literature references; cited from earlier work
[6] = tested on: HT22/Tau #1 transformed cell line; experiment: Neurite growth and cell viability in HT22/Tau #1 cells by fluorescence microscopy; type: cell-based, mouse; conditions: 25 μM pretreatment, 24 hours, neuronal cells expressing tau and ALK.Fc
Method: A HT22/Tau #1 transformed cell line was cotransfected with pGFP and pcDNA or pALK after pretreated with 25 μM of roscovitine. Thereafter, the resultant was cultured for 24 hours with/without doxycycline (Dox) treatment. Neurite growth and cell viability were measured through a fluorescence microscopy. Relative ratio of neurites was measured by the number of neuronal cells verses the length of neurites. Consequently, the reduction in neurite growth and the increase in cell death by ALK and tau in neuronal cells expressing tau and ALK.Fc were recovered through the CDK5 inhibitor, roscovitine, treatment (FIG. 9B).

CDK5 = target: T1, CDK5 (Mus musculus, UniProt P49615); experiment: ALK/Tau cell death in HT22 cells with CDK5 shRNA (LIVE/DEAD Viability/Cytotoxicity kit); type: cell-based; conditions: pGFP-tau + pALK.Fc + shRNA, 48 hours after transfection
T1 construct: endogenous in cells; host or cells: HT22 cells cotransfected with pGFP-tau, pALK.Fc and pCDK5 shRNA #1 or #2
T1 sequence (P49615 whole entry): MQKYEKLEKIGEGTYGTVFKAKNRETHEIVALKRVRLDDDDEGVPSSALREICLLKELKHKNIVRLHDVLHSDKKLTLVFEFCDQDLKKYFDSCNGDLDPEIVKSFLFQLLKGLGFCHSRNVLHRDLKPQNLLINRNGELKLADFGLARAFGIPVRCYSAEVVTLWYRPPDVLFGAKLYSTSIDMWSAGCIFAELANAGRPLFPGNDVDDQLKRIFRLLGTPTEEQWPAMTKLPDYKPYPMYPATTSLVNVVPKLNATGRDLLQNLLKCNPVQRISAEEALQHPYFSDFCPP
Method: Moreover, the present inventor observed neurotoxicity of ALK/Tau by using CDK5 shRNA. HT22 cells cotransfected with pGFP-tau and pALK.Fc constructs together with either pCDK5 shRNA #1 or #2. After 48 hours of the transfection, cell death was measured by using LIVE/DEAD Viability/Cytotoxicity kit (Molecular Probes). As the same as above experimental results, it was observed that cell death induced by ALK/Tau was reduced when endogenous CDK5 expression was inhibited using shRNA (FIG. 8D). The used pCDK5 shRNA #1 was characterized by having a polynucleotide having the nucleotide sequence of SEQ ID No. 1 (5′-[…]-3′), and pCDK5 shRNA #2 was characterized by having a polynucleotide having the nucleotide sequence of SEQ ID No. 2 (5′-[…]-3′). […] The results shown in FIGS. 8A to 8D were mean±S.D obtained by triplicate experiments.

[Cl-].[Li+] [LiCl]
tau phosphorylation ([1]; both cells expressing pGFP-tau alone and coexpressing pGFP-tau and pALK.Fc, inhibition levels very similar): inhibited

COc1cc(N2CCC(N3CCN(C)CC3)CC2)ccc1Nc1ncc(Cl)c(Nc2ccccc2S(=O)(=O)C(C)C)n1 [NVP-TAE684]
cell death (HT22/Tau #1 cells): 10%

C[C@@H](Oc1cc(-c2cnn(C3CCNCC3)c2)cnc1N)c1c(Cl)ccc(F)c1Cl [PF-2341066]
memory decline in all three types of behavior tests (TauC3 AD model mice): suppressed
ERK1/2 activity in brain ([2]; TauC3 mouse brain): reduced
phosphorylation of tau in brain (PHF1, pT231, CP13, 12E8) ([2]; TauC3 mouse brain (hippocampus)): significantly inhibited

N#CC(=C(/N)Sc1ccccc1N)/C(C#N)=C(\N)Sc1ccccc1N [U0126]
ALK-mediated tau phosphorylation [1]: significantly reduced
ALK.Fc/Tau-mediated neurotoxicity (cell death) (HT22 cells): partially reduced

Cc1cc(O)c2c(c1)C(=O)c1cc(O)cc(O)c1C2=O [emodin]
tau aggregation caused by ALK [3]: inhibited
PHF-1 expression (phosphorylated tau) [4]: decreasing
tau-1 expression (unphosphorylated tau) [4]: increased
IC50 [5]: 1000 to 5000 nM

CC[C@H](CO)Nc1nc(NCc2ccccc2)c2ncn(C(C)C)c2n1 [roscovitine]
increase in cell death by ALK and tau [6]: recovered
reduction in neurite growth by ALK and tau [6]: recovered
ALK-mediated tau phosphorylation [1]: significantly reduced
ALK.Fc/Tau-mediated neurotoxicity (cell death) (HT22 cells): significantly reduced

pCDK5 shRNA #1: CDK5 shRNA having the nucleotide sequence of SEQ ID No. 1 (5′-TGACCAAGCTGCCAGACTA-3′)
cell death induced by ALK/Tau (CDK5): reduced

pCDK5 shRNA #2: CDK5 shRNA having the nucleotide sequence of SEQ ID No. 2 (5′-ACTCCACGTCCATCGACAT-3′)
cell death induced by ALK/Tau (CDK5): reduced
